In ChEMBL document CHEMBL5390279, “Hydrolytic Activity of Mitochondrial F1FO-ATP Synthase as a Target for Myocardial Ischemia-Reperfusion Injury: Discovery and In Vitro and In Vivo Evaluation of Novel Inhibitors” (J Med Chem, 2023) one finds IC50, inhibition and Activity data, which are given here for 6 compounds.

Activity calls are given as the source filed them. The calls are words filed in the database; no cut-off is given here.

The IC50 is the concentration at which inhibition is half-maximal. As a reminder, the inhibition is the change of the read-out against control, counted positive when it falls.

A short description of series [1]: Inhibition of mouse heart mitochondrial F0F1-ATP synthase hydrolytic activity incubated for 10 mins by microplate reader analysis. In kind it is mitochondria, Mitochondria.
For series [2], the species on record is Mus musculus. Nature of the series: Inhibition of mouse heart mitochondrial F0F1-ATP synthase hydrolytic activity at 200 uM incubated for 10 mins by microplate reader analysis. The settings on record: Mitochondria.
Series [3] relates to H9c2. The experiment in a line: Induction of mitochondrial membrane potential loss in rat H9c2 cells assessed as increase in fluorescence intensity at 100 uM in presence of rotenone by TMRM dye based assay. In kind it is cell-based.
The subject of series [4] is H9c2. Nature of the series: Cytotoxicity against rat H9c2 cells assessed as reduction in cell survival at 50 uM incubated for 24 hrs by MTT assay. In kind it is toxicity, cell-based. The note with it: h9c2, 24 h.
The species named for series [5] is Mus musculus. Nature of the series: Effect on mPTP opening in C57BL6 mouse heart mitochondria assessed as number of calcium pulses by measuring green-5N fluorescence intensity at 10 to 1000 uM by calcium retention capacity assay. The note with it: dose 10-1000 µM.
For series [6], the species on record is Mus musculus. Nature of the series: Effect on mPTP opening in C57BL6 mouse heart mitochondria assessed as number of calcium pulses by measuring green-5N fluorescence intensity at 10 to 1000 uM in presence of cyclosporin A by calcium retention capacity assay. The settings on record: dose 10-1000 µM.
Series [7] concerns H9c2. Nature of the series: Induction of mitochondrial membrane potential loss in rat H9c2 cells assessed as increase in fluorescence intensity at 50 uM in presence of rotenone by TMRM dye based assay. It is filed as cell-based.
Series [8] has as its system H9c2. The experiment in a line: Induction of mitochondrial membrane potential loss in rat H9c2 cells assessed as increase in fluorescence intensity at 10 uM by TMRM dye based assay. It is filed as cell-based.
The test system of series [9] is H9c2. Nature of the series: Cytotoxicity against rat H9c2 cells assessed as reduction in cell viability at 100 uM incubated for 24 hrs by MTT assay. It is filed as toxicity, cell-based. The note with it: h9c2, 24 h. Background: Tetrazolium dyes change colour on reduction, which living cells bring about.
Series [10] concerns H9c2. Nature of the series: Induction of mitochondrial membrane potential loss in rat H9c2 cells assessed as increase in fluorescence intensity at 50 uM by TMRM dye based assay. It is filed as cell-based.
Series [11] concerns Mus musculus. Nature of the series: Cardioprotective activity against cardiac ischemia/reperfusion induced C57BL/6J mouse model assessed as reduction in cardiac infarct size at 3.5 mg/kg, iv prior to 5 mins of myocardial ischemia and 2 hrs of reperfusion (Rvb= 45.4 +/- 1.8 %). The arrangement: scale not given: the % may be the effect or the level left. It is filed as functional. The note with it: time 125 min, 2.083 h.

The test system of series [12] is H9c2. Nature of the series: Induction of mitochondrial membrane potential loss in rat H9c2 cells assessed as increase in fluorescence intensity at 10 uM in presence of rotenone by TMRM dye based assay. It is filed as cell-based.
In series [13] the test system is H9c2. The experiment in a line: Cytotoxicity against rat H9c2 cells assessed as reduction in cell survival at 100 uM incubated for 24 hrs by MTT assay. In kind it is toxicity, cell-based. The settings on record: h9c2, 24 h.
For series [14], the system named is H9c2. The experiment in a line: Induction of mitochondrial membrane potential loss in rat H9c2 cells assessed as increase in fluorescence intensity at 100 uM by TMRM dye based assay. It is filed as cell-based.
The test system of series [15] is Mus musculus. Nature of the series: Cardioprotective activity against cardiac ischemia/reperfusion induced C57BL/6J mouse model assessed as reduction in cardiac infarct size at 5 mg/kg, iv prior to 5 mins of myocardial ischemia and 2 hrs of reperfusion (Rvb= 45.4 +/- 1.8 %). It is filed as functional. The settings on record: time 125 min, 2.083 h. Details: scale not given: the % may be the effect or the level left.

For series [16], the system named is H9c2. Nature of the series: Cytotoxicity against rat H9c2 cells assessed as reduction in cell survival at 10 to 50 uM incubated for 24 hrs by MTT assay. It is filed as toxicity, cell-based. The settings on record: h9c2, 24 h, dose 10-50 µM.
Series [17] relates to H9c2. The experiment in a line: Cytotoxicity against rat H9c2 cells assessed as reduction in cell viability at 50 uM incubated for 24 hrs by MTT assay. It is filed as toxicity, cell-based. The settings on record: h9c2, 24 h.
The species entered for series [18] is Mus musculus. The experiment in a line: Inhibition of mouse heart mitochondrial F0F1-ATP synthase hydrolytic activity at 200 uM incubated for 10 mins by microplate reader analysis relative to control. The settings on record: Mitochondria.

In series [1], `COc1ccc(Cn2nc(-c3cccc(F)c3)c3cc(Nc4ccc(N5CCN(C)CC5)cc4)nc(N4CCOCC4)c32)cc1` returned an IC50 of 1980 µM. Also, the inhibition result in the series listed under Mus musculus [2] is “Active”.

Turning to `COc1ccc(Cn2nc(-c3ccccc3)c3cc(Nc4ccc(N5CCN(C)CC5)cc4)nc(N4CCNCC4)c32)cc1`, the outcome in the series on H9c2 [3] and in the series with H9c2 [7] was Active. The values for the Activity result with H9c2 [4], in the series with H9c2 [9] and in the series with Mus musculus [11] were “Non-Toxic”, “Toxic” and 33.4%, respectively. Further, the outcome in the series listed under Mus musculus [5], in the series listed under Mus musculus [6], in the series on H9c2 [8], in the series on H9c2 [10] and in the series with H9c2 [12] was inactive. Moreover, in [1], the IC50 turned out to be 107 µM.

Regarding `COc1ccc(Cn2nc(-c3ccccc3)c3cc(Nc4ccc(N5CCN(C)CC5)cc4)nc(N4CCN(C)CC4)c32)cc1`, the outcome with H9c2 [3] and in the series on H9c2 [7] was Active. Moreover, the Activity entry in the series on H9c2 [13] is reported as “Toxic”; in the series on H9c2 [4] it was “Non-Toxic”; in the series with H9c2 [9], “Toxic”; in the series on Mus musculus [11], 34.8%. Also, the outcome in the series listed under Mus musculus [5], in the series listed under Mus musculus [6], in the series on H9c2 [8], with H9c2 [10] and in the series on H9c2 [12] was inactive. In [1], this compound yielded an IC50 of 85.5 µM.

For `O=C(Oc1cc(S(=O)(=O)c2ccccc2)ccc1[N+](=O)[O-])c1ccc(Cl)cc1`, the Activity entry in the series with H9c2 [13] is “Non-Toxic”; with Mus musculus [15] it was 39.6%. Moreover, the outcome in the series with H9c2 [14] and with H9c2 [7] was inactive. Half-maximal inhibition in series [1] (IC50) was put at 347 µM.

In the case of `Oc1ccc(/C=C/c2cc(O)cc3c2[C@H](c2cc(O)cc(O)c2)[C@@H](c2ccc(O)cc2)O3)cc1`, the IC50 in [1] is 756 µM.

Regarding `COc1ccc(Cn2nc(-c3ccccc3)c3cc(Cl)nc(N4CCNCC4)c32)cc1`, the outcome in the series on H9c2 [3] and in the series on H9c2 [7] was Active. The Activity result in the series on H9c2 [13] is recorded as “Toxic”; with H9c2 [16], “Non-Toxic”; in the series on H9c2 [17] it was “Non-Toxic”; in the series on H9c2 [9], “Toxic”. Moreover, the result in the series filed under Mus musculus [5], in the series listed under Mus musculus [6], with H9c2 [8] and in the series on H9c2 [12] was inactive. Besides, inhibition in series [1] was half-maximal at 151 µM (IC50). Besides, in the series listed under Mus musculus [18], the inhibition was found to be 50%.
